Test results from US20240018157A1, “CYCLIC COMPOUNDS AND METHODS OF USING SAME” (Schrödinger, Inc., priority 2019, published 2024).

Key:
[1] = biological target: T1, full-length MALT1 protein His-MALT1(1-824) (Homo sapiens (Human), UniProt Q9UDY8); experiment: MALT1 protease assay, Assay 1 (2 nM MALT1, Ac-LRSR-AMC substrate); format: biochemical; conditions: 2 nM MALT1, 50 μM Ac-LRSR-AMC, 2 h pre-incubation, 8 hr incubation at RT
Procedure: MALT1 protease activity was assessed in an in vitro assay using a tetrapeptide as substrate and full-length MALT1 protein His-MALT1(1-824) purified from baculovirus-infected insect cells.
The final assay buffer includes 1 nM (Assay 2) or 2 nM (Assay 1) of MALT1 full-length protein, 50 μM Ac-LRSR-AMC substrate, 50 mM Tris pH 7.5, 600 mM Sodium Citrate, 1 mM DTT, 1 mM EDTA, and 0.05% BSA in 384-well plate format using black microtiter square well plates (Optiplate 384-F, Perkin Elmer).
Test compounds were dissolved in 100% DMSO at stock of 10 mM, with final DMSO concentration 0.1%. Test compounds were pre-incubated with MALT1 protein for 2 h at room temperature. Substrate was added after the pre-incubation and fluorescence signal was measured using Envision at excitation 355 nm and emission 460 nm after 8 hr incubation at RT. Increase in the assay signal was linear over this period and proportional with increase in the enzyme content.
The fluorescence units were transformed to percentage of remaining activity by using the high control (HC, median of fluorescence signal from wells containing MALT1 protein, substrate, and DMSO) and low control (LC, median of fluorescence signal from wells with substrate only) with the formula below: […]
IC50 and Hill coefficient were obtained using Graph Pad Prism (Graph Pad software, Inc, USA) with non-linear regression analysis.

[2] = biological target: T1, full-length MALT1 protein His-MALT1(1-824); experiment: MALT1 protease assay, Assay 2 (1 nM MALT1, Ac-LRSR-AMC substrate); format: biochemical; conditions: 1 nM MALT1, 50 μM Ac-LRSR-AMC, 2 h pre-incubation, 8 hr incubation at RT
Procedure, shortened: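 His-MALT1(1-824) from baculovirus-infected insect cells at 1 nM, preincubated 2 h at RT with compound (0.1% DMSO), then 50 μM Ac-LRSR-AMC in 50 mM Tris pH 7.5, 600 mM sodium citrate, 1 mM DTT, 1 mM EDTA, 0.05% BSA. Fluorescence (ex 355/em 460 nm) after 8 h at RT, normalized to enzyme and substrate-only controls. IC50 and Hill coefficient by non-linear regression.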

[3] = test system: IL10 secretion, OCI-LY10 cells; experiment: Human IL10 secretion assay, Assay 2 (Meso Scale Discovery); format: cell-based; conditions: 24 h incubation, MSD, read-out: IL-10 Secretion IC50 [nM] Assay 2
Procedure: (§1) IL10 is one of the cytokines that are regulated via activation of NF-kB signaling. For example, in ABC-DLBCL cell lines, the activated NF-kB signaling leads to increased IL10 secretion. Inhibition of NF-kB signaling has been shown leading to decreased IL10 secretion.
Assay 2: OCI-LY10 cells were seeded in IMEM supplemented with 20% fetal bovine serum at 4.8×10^5 cells per 160 μL per well in 96-well V-bottom cell culture plates (coming, 3894), treated with 120 nL of 3-fold serial compound dilutions, starting at 4 mM. The final vehicle concentration was 0.075% DMSO in all wells. After a 24 h incubation, human IL-10 pre-coated plates (Meso Scale Discovery) were washed 3 times with PBST, and 50 μL culture medium was aspirated into the MSD plate and incubated at 4° C. overnight. The supernatant was then discarded and the wells were washed 3 times with PBST. SULFO-TAG Anti-human IL-10 Antibody (50×) was diluted 50 fold according to the Meso Scale Protocol, then 25 μL of SULFO-TAG Anti-human IL-10 Antibody (1×) was added. After 2 h of incubation at RT, the supernatant was discarded and the well was washed 3 times with PBST. 2× read buffer was added and the signal was read on an MSD Sector S600. The effect of a particular compound on IL10 secretion is shown relative to the effect of DMSO; set as 100%. IC50 values (nM) were determined using 4-parametric curve-fitting.

[4] = test system: IL10 secretion, OCI-LY10 cells; experiment: Human IL10 secretion assay, Assay 1 (HTRF); format: cell-based; conditions: 24 h incubation, read-out: IL-10 Secretion IC50 [nM] Assay 1
Procedure: as §1
Assay 1: OCI-LY10 cells were seeded in IMEM supplemented with 20% fetal bovine serum at 3×10^5 cells per well in 96-well round bottom plates (Corning 3799, Corning), treated with 100 nL of 3-fold serial compound dilutions, starting at 10 mM. The final vehicle concentration was 0.1% DMSO in all wells. After 24 h incubation, the cells were transferred to 96-PCR plates (Axygen: PCR-96-FLT-C) and centrifuged, then 16 μL of cell culture media was transferred to HTRF plates and IL10 levels were measured using human IL-10 Assay Kits (Cisbio) using HTRF format. The signals were transformed to percentage of remaining activity by using the high control (HC, median of signal from wells containing cells treated with DMSO) and low control (LC, median of signal from wells with no cells). IC50 values (nM) were determined using 4-parametric curve-fitting and Hill coefficient were obtained using Graph Pad Prism (Graph Pad software, Inc, USA) with non-linear regression analysis.

T1 sequence (Q9UDY8 whole entry): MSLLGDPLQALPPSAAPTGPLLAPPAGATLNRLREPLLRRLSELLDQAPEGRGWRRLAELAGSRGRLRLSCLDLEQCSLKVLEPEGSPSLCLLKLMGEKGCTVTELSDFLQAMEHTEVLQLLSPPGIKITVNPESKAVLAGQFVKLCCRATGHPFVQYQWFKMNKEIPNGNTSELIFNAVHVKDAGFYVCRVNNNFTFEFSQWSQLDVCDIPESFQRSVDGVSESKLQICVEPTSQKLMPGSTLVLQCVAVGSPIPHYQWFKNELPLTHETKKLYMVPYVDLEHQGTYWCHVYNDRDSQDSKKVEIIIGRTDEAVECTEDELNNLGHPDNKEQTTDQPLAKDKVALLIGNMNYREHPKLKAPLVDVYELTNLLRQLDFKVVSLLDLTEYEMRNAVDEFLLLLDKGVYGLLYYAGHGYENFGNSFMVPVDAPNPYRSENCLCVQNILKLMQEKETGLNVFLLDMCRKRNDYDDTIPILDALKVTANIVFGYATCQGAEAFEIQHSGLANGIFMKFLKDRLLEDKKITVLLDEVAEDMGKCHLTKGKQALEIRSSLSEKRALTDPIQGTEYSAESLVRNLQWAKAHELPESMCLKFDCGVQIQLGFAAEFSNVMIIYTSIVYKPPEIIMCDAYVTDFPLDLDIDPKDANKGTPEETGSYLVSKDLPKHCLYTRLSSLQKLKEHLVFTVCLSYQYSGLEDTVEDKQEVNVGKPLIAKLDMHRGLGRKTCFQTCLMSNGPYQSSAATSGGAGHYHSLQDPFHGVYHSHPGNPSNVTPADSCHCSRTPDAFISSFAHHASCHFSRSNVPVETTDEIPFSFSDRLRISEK

| Compound | IC50 [1] [nM] | IC50 [2] [nM] | IC50 [3] [nM] | IC50 [4] [nM] |
| --- | --- | --- | --- | --- |
| CC1(C(F)(F)F)CN(C(=O)Nc2cnc(-n3nccn3)c(Cl)c2)c2cnc3cc(C#N)nn3c21 (stereo not shown) [compound 17, N-[5-chloro-6-(triazol-2-yl)-3-pyridyl]-11-cyano-3-methyl-3-(trifluoromethyl)-1,5,8,12-tetrazatricyclo[7.3.0.02,6]dodeca-2(6),7,9,11-tetraene-5-carboxamide] | 10 to 100 | – | – | – |
| C[C@@]1(C(F)(F)F)CN(C(=O)Nc2cc(C(F)(F)F)ncc2F)c2cnc3cc(Cl)nn3c21 [compound 96, (R)-2-chloro-N-(5-fluoro-2-(trifluoromethyl)pyridin-4-yl)-8-methyl-8-(trifluoromethyl)-7,8-dihydro-6H-pyrazolo[1,5-a]pyrrolo[2,3-e]pyrimidine-6-carboxamide] | – | 10 to 100 | 100 to 1000 | – |
| C[C@@]1(C(F)(F)F)CN(C(=O)Nc2cc(OC(F)F)cc(O[C@H]3CCNC3)n2)c2cnc3cc(Cl)nn3c21 [compound 133, (R)-2-chloro-N-(4-(difluoromethoxy)-6-(((S)-pyrrolidin-3-yl)oxy)pyridin-2-yl)-8-methyl-8-(trifluoromethyl)-7,8-dihydro-6H-pyrazolo[1,5-a]pyrrolo[2,3-e]pyrimidine-6-carboxamide] | – | 10 to 100 | 10 to 100 | 100 to 1000 |
| Cc1cn2ncc3c(c2n1)C(C)(C)CN3C(=O)Nc1cnc(-n2nccn2)c(Cl)c1 [compound 134, N-(5-chloro-6-(2H-1,2,3-triazol-2-yl)pyridin-3-yl)-2,9,9-trimethyl-8,9-dihydro-7H-imidazo[1,2-b]pyrrolo[3,2-d]pyridazine-7-carboxamide] | – | 10 to 100 | 10 to 100 | 100 to 1000 |
| C[C@@]1(C(F)(F)F)CN(C(=O)Nc2cnc(-n3nccn3)c(C(F)(F)F)c2)c2cnc3cc(F)nn3c21 [compound 181, (R)-N-(6-(2H-1,2,3-triazol-2-yl)-5-(trifluoromethyl)pyridin-3-yl)-2-fluoro-8-methyl-8-(trifluoromethyl)-7,8-dihydro-6H-pyrazolo[1,5-a]pyrrolo[2,3-e]pyrimidine-6-carboxamide] | – | – | 10 to 100 | 10 to 100 |
| O=C(Nc1cnc(-n2nccn2)c(Cl)c1)N1CC(O)(C(F)(F)F)c2c1cnc1cc(Cl)nn21 (stereo not shown) [compound 201, 2-chloro-N-(5-chloro-6-(2H-1,2,3-triazol-2-yl)pyridin-3-yl)-8-hydroxy-8-(trifluoromethyl)-7,8-dihydro-6H-pyrazolo[1,5-a]pyrrolo[2,3-e]pyrimidine-6-carboxamide] | – | – | 10 to 100 | 10 to 100 |
| C[C@@]1(C(F)(F)F)CN(C(=O)Nc2cnc(-n3cncn3)c(Cl)c2)c2cnc3cc(F)nn3c21 [compound 202, (R)-N-(5-chloro-6-(1H-1,2,4-triazol-1-yl)pyridin-3-yl)-2-fluoro-8-methyl-8-(trifluoromethyl)-7,8-dihydro-6H-pyrazolo[1,5-a]pyrrolo[2,3-e]pyrimidine-6-carboxamide] | – | 10 to 100 | 10 to 100 | 100 to 1000 |

Further lines, results first:

| IC50 [1] [nM] | IC50 [2] [nM] | IC50 [3] [nM] | IC50 [4] [nM] | Compound |
| --- | --- | --- | --- | --- |
| 10 to 100 | – | – | – | C[C@@]1(C(F)(F)F)CN(C(=O)Nc2cnc(-n3cc(C#N)cn3)c(Cl)c2)c2cnc3cc(Cl)nn3c21 [compound 22, (R)-2-chloro-N-(5-chloro-6-(4-cyano-1H-pyrazol-1-yl)pyridin-3-yl)-8-methyl-8-(trifluoromethyl)-7,8-dihydro-6H-pyrazolo[1,5-a]pyrrolo[2,3-e]pyrimidine-6-carboxamide] |
| 10 to 100 | – | – | – | C[C@@]1(C(F)(F)F)CN(C(=O)Nc2cnc(N3CCCC3)c(Cl)c2)c2cnc3cc(Cl)nn3c21 [compound 23, (R)-2-chloro-N-(5-chloro-6-(pyrrolidin-1-yl)pyridin-3-yl)-8-methyl-8-(trifluoromethyl)-7,8-dihydro-6H-pyrazolo[1,5-a]pyrrolo[2,3-e]pyrimidine-6-carboxamide] |
| – | 10 to 100 | 10 to 100 | – | COc1cn(-c2ncc(NC(=O)N3C[C@@](C)(C(F)(F)F)c4c3cnc3cc(Cl)nn43)cc2Cl)nn1 [compound 95, (R)-2-chloro-N-(5-chloro-6-(4-methoxy-1H-1,2,3-triazol-1-yl)pyridin-3-yl)-8-methyl-8-(trifluoromethyl)-7,8-dihydro-6H-pyrazolo[1,5-a]pyrrolo[2,3-e]pyrimidine-6-carboxamide] |
| – | 10 to 100 | 10 to 100 | 10 to 100 | CN1CC[C@H](Oc2cc(NC(=O)N3C[C@@](C)(C(F)(F)F)c4c3cnc3cc(Cl)nn43)cc(C(F)F)n2)C1 [compound 111, (R)-2-chloro-N-(2-(difluoromethyl)-6-(((S)-1-methylpyrrolidin-3-yl)oxy)pyridin-4-yl)-8-methyl-8-(trifluoromethyl)-7,8-dihydro-6H-pyrazolo[1,5-a]pyrrolo[2,3-e]pyrimidine-6-carboxamide] |
| – | 10 to 100 | 10 to 100 | 100 to 1000 | C[C@@]1(C(F)(F)F)CN(C(=O)Nc2cnc(N3CCOC3=O)c(C(F)F)c2)c2cnc3cc(Cl)nn3c21 [compound 113, (R)-2-chloro-N-(5-(difluoromethyl)-6-(2-oxooxazolidin-3-yl)pyridin-3-yl)-8-methyl-8-(trifluoromethyl)-7,8-dihydro-6H-pyrazolo[1,5-a]pyrrolo[2,3-e]pyrimidine-6-carboxamide] |
| – | 10 to 100 | 10 to 100 | 10 to 100 | CN(C)C(=O)c1ncc(NC(=O)N2C[C@@](C)(C(F)(F)F)c3c2cnc2cc(Cl)nn32)cc1Cl [compound 123, (R)-2-chloro-N-(5-chloro-6-(dimethylcarbamoyl)pyridin-3-yl)-8-methyl-8-(trifluoromethyl)-7,8-dihydro-6H-pyrazolo[1,5-a]pyrrolo[2,3-e]pyrimidine-6-carboxamide] |
| – | 10 to 100 | 10 to 100 | 100 to 1000 | CC(O)c1cnnn1-c1ncc(NC(=O)N2C[C@@](C)(C(F)(F)F)c3c2cnc2cc(F)nn32)cc1C(F)F (stereo partly drawn) [compound 188, (8R)-N-(5-(difluoromethyl)-6-(5-(1-hydroxyethyl)-1H-1,2,3-triazol-1-yl)pyridin-3-yl)-2-fluoro-8-methyl-8-(trifluoromethyl)-7,8-dihydro-6H-pyrazolo[1,5-a]pyrrolo[2,3-e]pyrimidine-6-carboxamide] |
| – | – | 10 to 100 | 10 to 100 | CC(O)c1cnn(-c2ncc(NC(=O)N3C[C@@](C)(C(F)(F)F)c4c3cnc3cc(F)nn43)cc2C(F)F)n1 (stereo partly drawn) [compound 191, (8R)-N-(5-(difluoromethyl)-6-(4-(1-hydroxyethyl)-2H-1,2,3-triazol-2-yl)pyridin-3-yl)-2-fluoro-8-methyl-8-(trifluoromethyl)-7,8-dihydro-6H-pyrazolo[1,5-a]pyrrolo[2,3-e]pyrimidine-6-carboxamide] |
